Test results taken from patent publication US11945816B2, “Inhibitors of EGFR and/or HER2 and methods of use” (Dana-Farber Cancer Institute, Inc., priority 2017, dated 2024).

target: T1, EGFR InsSVD (D770_N771insSVD) transformed Ba/F3 cells (Homo sapiens, UniProt P00533, INS770SVD); assay: Proliferation inhibition assay, EGFR InsSVD transformed Ba/F3 cells; type: cell-based; conditions: MTS assay, 72 hours
T1 construct: expressed in transfected cells; host or cells: Ba/F3
Method: (§1) Cell growth inhibition can be assessed by MTS assay or by Cell Titer Glo Luminescent Cell viability assay (Promega®). Cells are seeded and grow in culture plates before they are exposed to representative compounds of the application for various duration. The viability of the cells are then assessed. […] The growth curves can be fitted using a nonlinear regression model with sigmoidal dose response.
(§2) Cell growth inhibition was assessed by MTS assay for Ba/F3, DFCI58-229, and DFCI127c cells, or by Cell Titer Glo Luminescent Cell viability assay (Promega®) for DFC1362JC cells, 3000 Ba/F3 cells were seeded for per well in 96-well plates, and were exposed to representative compounds of the application (3.3 nM to 10 μM) for 72 hours. For DFCI58-229, DFCI127c, and DFC1362JC cells, 5000 cells were seeded per well. All experimental points included 6 to 12 wells. […] The growth curves were fitted using a nonlinear regression model with sigmoidal dose response.
(§3) Activities of representative compounds of the present application in inhibiting EGFR and HER2 were tested by MTS assay (for Ba/F3 cell, DFCI58-229 cell, and DFCI127c cells) or by CellTiter-Glot luminescent cell viability assay (for DFCI362JC cells). For assays with Ba/F3 cells, 3000 cells were seeded for per well in 96-well plates and were exposed to indicated compounds with a concentration of 3.3 to 10 μM for 72 hours. For assays with DFCI58-229 cell, DFCI127c cell, or DFCI362JC cell, 5000 cells were seeded per well in 96-well plates and were exposed to indicated compounds with a concentration of 3.3 to 10 μM for 72 hours.

T1 sequence (P00533 with tags, fused parts or gaps INS770SVD): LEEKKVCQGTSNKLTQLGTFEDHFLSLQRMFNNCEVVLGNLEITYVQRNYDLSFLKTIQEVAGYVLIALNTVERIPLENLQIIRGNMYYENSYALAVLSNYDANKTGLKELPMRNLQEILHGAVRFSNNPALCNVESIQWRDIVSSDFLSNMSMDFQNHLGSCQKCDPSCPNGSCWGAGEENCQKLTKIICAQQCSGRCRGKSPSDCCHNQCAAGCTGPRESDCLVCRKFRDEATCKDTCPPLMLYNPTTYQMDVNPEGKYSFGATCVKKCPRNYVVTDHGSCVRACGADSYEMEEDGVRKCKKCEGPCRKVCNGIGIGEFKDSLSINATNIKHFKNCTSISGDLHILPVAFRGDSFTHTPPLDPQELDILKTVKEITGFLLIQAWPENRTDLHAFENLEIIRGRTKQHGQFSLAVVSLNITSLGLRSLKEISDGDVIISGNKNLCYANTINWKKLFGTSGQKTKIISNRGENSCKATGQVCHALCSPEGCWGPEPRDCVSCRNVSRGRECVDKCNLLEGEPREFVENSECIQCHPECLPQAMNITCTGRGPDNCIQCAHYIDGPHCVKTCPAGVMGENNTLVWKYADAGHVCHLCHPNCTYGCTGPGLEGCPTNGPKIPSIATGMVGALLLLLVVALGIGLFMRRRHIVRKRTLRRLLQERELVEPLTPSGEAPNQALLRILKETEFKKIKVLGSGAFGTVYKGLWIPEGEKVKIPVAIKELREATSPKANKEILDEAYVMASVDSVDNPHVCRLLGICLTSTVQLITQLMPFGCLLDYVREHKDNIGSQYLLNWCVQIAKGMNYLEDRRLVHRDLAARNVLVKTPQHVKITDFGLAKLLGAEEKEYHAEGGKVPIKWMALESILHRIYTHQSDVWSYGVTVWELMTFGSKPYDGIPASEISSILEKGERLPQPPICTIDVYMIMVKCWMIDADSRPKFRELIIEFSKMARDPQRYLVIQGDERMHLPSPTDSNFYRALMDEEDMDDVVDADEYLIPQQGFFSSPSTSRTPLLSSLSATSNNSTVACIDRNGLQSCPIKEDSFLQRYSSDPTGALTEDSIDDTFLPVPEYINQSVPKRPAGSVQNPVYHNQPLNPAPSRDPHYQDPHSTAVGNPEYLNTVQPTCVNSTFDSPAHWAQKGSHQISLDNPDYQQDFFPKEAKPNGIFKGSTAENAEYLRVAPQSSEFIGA

Structure (SMILES) | EC50 [µM]
C=CC(=O)Nc1cccc(-n2c(=O)c(Oc3c(F)cc(F)cc3F)cc3cnc(Nc4cnn(C)c4)nc32)c1 [Compound 82] | < 0.2
C=CC(=O)Nc1cc(Nc2ncc3cc(Oc4ccc(F)cc4F)c(=O)n(CC(F)(F)F)c3n2)c(OC)cc1N(C)CCN(C)C [Compound 85] | < 0.2
C=CC(=O)Nc1ccc(OC)c(Nc2ncc3cc(Oc4ccc(F)cc4F)c(=O)n(CCN(C)C)c3n2)c1 [Compound 94] | 0.2 to 0.6
C=CC(=O)Nc1cc(Nc2ncc3cc(Oc4ccc(F)cc4F)c(=O)[nH]c3n2)c(OC)cc1N(C)CCN(C)C [Compound 99] | < 0.2
C=CC(=O)N1C[C@H](Cn2c(=O)c(Oc3ccc(F)cc3F)cc3cnc(Nc4cnn(C)c4)nc32)[C@@H](OC)C1 [Compound 102] | < 0.2
C=CC(=O)Nc1cc(Nc2ncc3cc(Oc4ccc(F)cc4F)c(=O)n(C)c3n2)ncc1N(C)CCN(C)C [Compound 105] | > 1
C=CC(=O)Nc1cccc(-n2c(=O)c(Oc3ccc(F)cc3F)cc3cnc(N)nc32)c1 [Compound 106] | < 0.2
CCC(=O)Nc1cc(Nc2ncc3cc(Oc4ccc(F)cc4F)c(=O)n(C)c3n2)c(OC)cc1N(C)CCN(C)C [Compound 111] | > 1
C=CC(=O)Nc1cc(Nc2ncc3cc(Oc4ccc(F)cc4F)c(=O)n(C)c3n2)cnc1N(C)CCN(C)C [Compound 113] | < 0.2

target: T2, EGFR InsGY (D770delinsGY) transformed Ba/F3 cells (Homo sapiens, UniProt P00533, D770Y/INS769G); assay: Proliferation inhibition assay, EGFR InsGY transformed Ba/F3 cells; type: cell-based; conditions: MTS assay, 72 hours
T2 construct: expressed in transfected cells; host or cells: Ba/F3
Method: as §1, §2, §3

Structure (SMILES) | EC50 [µM]
C=CC(=O)Nc1cccc(-n2c(=O)c(Oc3c(F)cc(F)cc3F)cc3cnc(Nc4cnn(C)c4)nc32)c1 [Compound 82] | < 0.2
C=CC(=O)Nc1cc(Nc2ncc3cc(Oc4ccc(F)cc4F)c(=O)n(CC(F)(F)F)c3n2)c(OC)cc1N(C)CCN(C)C [Compound 85] | < 0.2
C=CC(=O)Nc1ccc(OC)c(Nc2ncc3cc(Oc4ccc(F)cc4F)c(=O)n(CCN(C)C)c3n2)c1 [Compound 94] | < 0.2
C=CC(=O)Nc1cc(Nc2ncc3cc(Oc4ccc(F)cc4F)c(=O)[nH]c3n2)c(OC)cc1N(C)CCN(C)C [Compound 99] | < 0.2
C=CC(=O)N1C[C@H](Cn2c(=O)c(Oc3ccc(F)cc3F)cc3cnc(Nc4cnn(C)c4)nc32)[C@@H](OC)C1 [Compound 102] | < 0.2
C=CC(=O)Nc1cc(Nc2ncc3cc(Oc4ccc(F)cc4F)c(=O)n(C)c3n2)ncc1N(C)CCN(C)C [Compound 105] | > 1
C=CC(=O)Nc1cccc(-n2c(=O)c(Oc3ccc(F)cc3F)cc3cnc(N)nc32)c1 [Compound 106] | < 0.2
CCC(=O)Nc1cc(Nc2ncc3cc(Oc4ccc(F)cc4F)c(=O)n(C)c3n2)c(OC)cc1N(C)CCN(C)C [Compound 111] | > 1
C=CC(=O)Nc1cc(Nc2ncc3cc(Oc4ccc(F)cc4F)c(=O)n(C)c3n2)cnc1N(C)CCN(C)C [Compound 113] | < 0.2

target: T3, EGFR InsH transformed Ba/F3 cells (Homo sapiens, UniProt P00533, DUP773-773); assay: Proliferation inhibition assay, EGFR InsH transformed Ba/F3 cells; type: cell-based; conditions: MTS assay, 72 hours
T3 construct: expressed in transfected cells; host or cells: Ba/F3
Method: as §1, §2, §3

T3 sequence (P00533 with tags, fused parts or gaps DUP773-773): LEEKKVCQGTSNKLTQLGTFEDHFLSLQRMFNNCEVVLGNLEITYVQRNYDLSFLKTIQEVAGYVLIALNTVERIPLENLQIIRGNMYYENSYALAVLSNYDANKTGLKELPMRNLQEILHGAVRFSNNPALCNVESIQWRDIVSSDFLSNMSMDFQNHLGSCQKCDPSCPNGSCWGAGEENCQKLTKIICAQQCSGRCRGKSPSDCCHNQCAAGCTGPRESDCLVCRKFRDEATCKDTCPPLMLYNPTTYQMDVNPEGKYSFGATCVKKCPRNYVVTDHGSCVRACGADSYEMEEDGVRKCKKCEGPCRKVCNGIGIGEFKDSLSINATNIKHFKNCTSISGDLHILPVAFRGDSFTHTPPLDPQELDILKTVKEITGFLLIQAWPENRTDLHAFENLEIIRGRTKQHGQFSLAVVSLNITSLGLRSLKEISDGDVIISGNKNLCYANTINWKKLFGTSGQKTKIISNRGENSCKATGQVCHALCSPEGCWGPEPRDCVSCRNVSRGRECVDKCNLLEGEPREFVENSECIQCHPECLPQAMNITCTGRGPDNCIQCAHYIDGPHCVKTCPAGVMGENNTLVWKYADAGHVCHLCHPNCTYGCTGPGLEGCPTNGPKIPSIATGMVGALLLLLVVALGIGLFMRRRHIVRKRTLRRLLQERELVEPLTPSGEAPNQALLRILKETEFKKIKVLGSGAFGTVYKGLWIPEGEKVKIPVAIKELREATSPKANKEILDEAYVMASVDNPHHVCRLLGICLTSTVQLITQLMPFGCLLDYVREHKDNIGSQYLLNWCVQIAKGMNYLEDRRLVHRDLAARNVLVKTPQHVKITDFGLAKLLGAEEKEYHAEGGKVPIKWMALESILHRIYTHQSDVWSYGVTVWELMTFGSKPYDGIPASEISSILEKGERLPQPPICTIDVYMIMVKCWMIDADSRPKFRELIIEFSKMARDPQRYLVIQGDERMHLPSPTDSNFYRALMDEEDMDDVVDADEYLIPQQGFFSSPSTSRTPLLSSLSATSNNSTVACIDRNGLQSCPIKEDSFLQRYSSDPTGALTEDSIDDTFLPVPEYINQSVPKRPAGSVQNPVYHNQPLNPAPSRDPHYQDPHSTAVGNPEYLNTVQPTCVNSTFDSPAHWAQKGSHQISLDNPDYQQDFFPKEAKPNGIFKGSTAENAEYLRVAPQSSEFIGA

Structure (SMILES) | EC50 [µM]
C=CC(=O)Nc1cccc(-n2c(=O)c(Oc3c(F)cc(F)cc3F)cc3cnc(Nc4cnn(C)c4)nc32)c1 [Compound 82] | < 0.2
C=CC(=O)Nc1cc(Nc2ncc3cc(Oc4ccc(F)cc4F)c(=O)n(CC(F)(F)F)c3n2)c(OC)cc1N(C)CCN(C)C [Compound 85] | < 0.2
C=CC(=O)Nc1ccc(OC)c(Nc2ncc3cc(Oc4ccc(F)cc4F)c(=O)n(CCN(C)C)c3n2)c1 [Compound 94] | > 1
C=CC(=O)Nc1cc(Nc2ncc3cc(Oc4ccc(F)cc4F)c(=O)[nH]c3n2)c(OC)cc1N(C)CCN(C)C [Compound 99] | 0.2 to 0.6
C=CC(=O)N1C[C@H](Cn2c(=O)c(Oc3ccc(F)cc3F)cc3cnc(Nc4cnn(C)c4)nc32)[C@@H](OC)C1 [Compound 102] | 0.2 to 0.6
C=CC(=O)Nc1cc(Nc2ncc3cc(Oc4ccc(F)cc4F)c(=O)n(C)c3n2)ncc1N(C)CCN(C)C [Compound 105] | > 1
C=CC(=O)Nc1cccc(-n2c(=O)c(Oc3ccc(F)cc3F)cc3cnc(N)nc32)c1 [Compound 106] | 0.2 to 0.6
CCC(=O)Nc1cc(Nc2ncc3cc(Oc4ccc(F)cc4F)c(=O)n(C)c3n2)c(OC)cc1N(C)CCN(C)C [Compound 111] | > 1
C=CC(=O)Nc1cc(Nc2ncc3cc(Oc4ccc(F)cc4F)c(=O)n(C)c3n2)cnc1N(C)CCN(C)C [Compound 113] | 0.6 to 1

target: T4, wild-type EGFR transformed Ba/F3 cells (Homo sapiens, UniProt P00533); assay: Proliferation inhibition assay, wild-type EGFR transformed Ba/F3 cells; type: cell-based; conditions: MTS assay, 72 hours
T4 construct: expressed in transfected cells; host or cells: Ba/F3
Method: as §1, §2, §3

T4 sequence (P00533 25-1210): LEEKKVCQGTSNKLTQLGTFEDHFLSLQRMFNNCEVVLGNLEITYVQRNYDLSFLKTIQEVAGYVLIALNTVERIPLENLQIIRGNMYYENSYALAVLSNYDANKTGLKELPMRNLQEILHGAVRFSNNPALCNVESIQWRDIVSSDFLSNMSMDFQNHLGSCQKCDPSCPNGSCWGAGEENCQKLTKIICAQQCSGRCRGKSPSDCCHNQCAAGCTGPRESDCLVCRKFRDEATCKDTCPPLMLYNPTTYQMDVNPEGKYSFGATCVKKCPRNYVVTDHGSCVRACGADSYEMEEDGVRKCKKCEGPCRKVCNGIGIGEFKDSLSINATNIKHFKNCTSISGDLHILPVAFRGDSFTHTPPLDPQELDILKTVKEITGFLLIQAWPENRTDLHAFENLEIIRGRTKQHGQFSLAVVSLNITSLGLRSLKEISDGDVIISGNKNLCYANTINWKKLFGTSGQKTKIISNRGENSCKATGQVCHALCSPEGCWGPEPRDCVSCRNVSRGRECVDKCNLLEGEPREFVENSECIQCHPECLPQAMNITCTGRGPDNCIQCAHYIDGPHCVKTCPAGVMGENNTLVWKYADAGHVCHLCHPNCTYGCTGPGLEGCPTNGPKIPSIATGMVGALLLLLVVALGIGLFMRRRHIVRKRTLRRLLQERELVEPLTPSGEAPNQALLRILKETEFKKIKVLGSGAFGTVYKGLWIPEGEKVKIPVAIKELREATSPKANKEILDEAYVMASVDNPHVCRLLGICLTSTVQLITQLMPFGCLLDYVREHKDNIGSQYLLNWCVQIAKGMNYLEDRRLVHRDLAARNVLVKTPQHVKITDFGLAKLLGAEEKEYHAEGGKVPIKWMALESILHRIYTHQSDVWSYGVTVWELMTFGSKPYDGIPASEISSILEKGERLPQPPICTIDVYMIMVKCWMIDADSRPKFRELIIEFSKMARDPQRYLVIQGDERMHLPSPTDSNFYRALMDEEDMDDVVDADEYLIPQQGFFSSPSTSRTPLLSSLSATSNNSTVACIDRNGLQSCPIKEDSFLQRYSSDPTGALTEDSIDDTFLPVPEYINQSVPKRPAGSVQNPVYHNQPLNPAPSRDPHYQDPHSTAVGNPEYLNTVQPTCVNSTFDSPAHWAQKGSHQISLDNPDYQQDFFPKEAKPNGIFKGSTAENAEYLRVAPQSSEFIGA

Structure (SMILES) | EC50 [µM]
C=CC(=O)Nc1cccc(-n2c(=O)c(Oc3c(F)cc(F)cc3F)cc3cnc(Nc4cnn(C)c4)nc32)c1 [Compound 82] | < 0.2
C=CC(=O)Nc1cc(Nc2ncc3cc(Oc4ccc(F)cc4F)c(=O)n(CC(F)(F)F)c3n2)c(OC)cc1N(C)CCN(C)C [Compound 85] | < 0.2
C=CC(=O)Nc1ccc(OC)c(Nc2ncc3cc(Oc4ccc(F)cc4F)c(=O)n(CCN(C)C)c3n2)c1 [Compound 94] | < 0.2
C=CC(=O)Nc1cc(Nc2ncc3cc(Oc4ccc(F)cc4F)c(=O)[nH]c3n2)c(OC)cc1N(C)CCN(C)C [Compound 99] | < 0.2
C=CC(=O)N1C[C@H](Cn2c(=O)c(Oc3ccc(F)cc3F)cc3cnc(Nc4cnn(C)c4)nc32)[C@@H](OC)C1 [Compound 102] | < 0.2
C=CC(=O)Nc1cc(Nc2ncc3cc(Oc4ccc(F)cc4F)c(=O)n(C)c3n2)ncc1N(C)CCN(C)C [Compound 105] | 0.2 to 0.6
C=CC(=O)Nc1cccc(-n2c(=O)c(Oc3ccc(F)cc3F)cc3cnc(N)nc32)c1 [Compound 106] | < 0.2
CCC(=O)Nc1cc(Nc2ncc3cc(Oc4ccc(F)cc4F)c(=O)n(C)c3n2)c(OC)cc1N(C)CCN(C)C [Compound 111] | > 1
C=CC(=O)Nc1cc(Nc2ncc3cc(Oc4ccc(F)cc4F)c(=O)n(C)c3n2)cnc1N(C)CCN(C)C [Compound 113] | < 0.2

target: T5, HER2 InsWLV transformed Ba/F3 cells (Homo sapiens, UniProt P04626, INS773WL/M774V); assay: Proliferation inhibition assay, HER2 InsWLV transformed Ba/F3 cells; type: cell-based; conditions: MTS assay, 72 hours, Table 10 key
T5 construct: expressed in transfected cells; host or cells: Ba/F3
Method: as §1, §2, §3

Structure (SMILES) | EC50 [µM]
C=CC(=O)Nc1cccc(-n2c(=O)c(Oc3c(F)cc(F)cc3F)cc3cnc(Nc4cnn(C)c4)nc32)c1 [Compound 82] | < 0.2
C=CC(=O)Nc1cc(Nc2ncc3cc(Oc4ccc(F)cc4F)c(=O)n(CC(F)(F)F)c3n2)c(OC)cc1N(C)CCN(C)C [Compound 85] | < 0.2
C=CC(=O)Nc1ccc(OC)c(Nc2ncc3cc(Oc4ccc(F)cc4F)c(=O)n(CCN(C)C)c3n2)c1 [Compound 94] | 0.2 to 0.6
C=CC(=O)Nc1cc(Nc2ncc3cc(Oc4ccc(F)cc4F)c(=O)[nH]c3n2)c(OC)cc1N(C)CCN(C)C [Compound 99] | < 0.2
C=CC(=O)N1C[C@H](Cn2c(=O)c(Oc3ccc(F)cc3F)cc3cnc(Nc4cnn(C)c4)nc32)[C@@H](OC)C1 [Compound 102] | < 0.2
C=CC(=O)Nc1cc(Nc2ncc3cc(Oc4ccc(F)cc4F)c(=O)n(C)c3n2)ncc1N(C)CCN(C)C [Compound 105] | 0.6 to 1
C=CC(=O)Nc1cccc(-n2c(=O)c(Oc3ccc(F)cc3F)cc3cnc(N)nc32)c1 [Compound 106] | < 0.2
CCC(=O)Nc1cc(Nc2ncc3cc(Oc4ccc(F)cc4F)c(=O)n(C)c3n2)c(OC)cc1N(C)CCN(C)C [Compound 111] | > 1
C=CC(=O)Nc1cc(Nc2ncc3cc(Oc4ccc(F)cc4F)c(=O)n(C)c3n2)cnc1N(C)CCN(C)C [Compound 113] | < 0.2

target: T6, HER2 InsYVMA (A775_G776insYVMA) transformed Ba/F3 cells (Homo sapiens, UniProt P04626, INS775YVMA); assay: Proliferation inhibition assay, HER2 InsYVMA transformed Ba/F3 cells; type: cell-based; conditions: MTS assay, 72 hours, Table 10 key
T6 construct: expressed in transfected cells; host or cells: Ba/F3
Method: as §1, §2, §3

T6 sequence (P04626 with tags, fused parts or gaps INS775YVMA): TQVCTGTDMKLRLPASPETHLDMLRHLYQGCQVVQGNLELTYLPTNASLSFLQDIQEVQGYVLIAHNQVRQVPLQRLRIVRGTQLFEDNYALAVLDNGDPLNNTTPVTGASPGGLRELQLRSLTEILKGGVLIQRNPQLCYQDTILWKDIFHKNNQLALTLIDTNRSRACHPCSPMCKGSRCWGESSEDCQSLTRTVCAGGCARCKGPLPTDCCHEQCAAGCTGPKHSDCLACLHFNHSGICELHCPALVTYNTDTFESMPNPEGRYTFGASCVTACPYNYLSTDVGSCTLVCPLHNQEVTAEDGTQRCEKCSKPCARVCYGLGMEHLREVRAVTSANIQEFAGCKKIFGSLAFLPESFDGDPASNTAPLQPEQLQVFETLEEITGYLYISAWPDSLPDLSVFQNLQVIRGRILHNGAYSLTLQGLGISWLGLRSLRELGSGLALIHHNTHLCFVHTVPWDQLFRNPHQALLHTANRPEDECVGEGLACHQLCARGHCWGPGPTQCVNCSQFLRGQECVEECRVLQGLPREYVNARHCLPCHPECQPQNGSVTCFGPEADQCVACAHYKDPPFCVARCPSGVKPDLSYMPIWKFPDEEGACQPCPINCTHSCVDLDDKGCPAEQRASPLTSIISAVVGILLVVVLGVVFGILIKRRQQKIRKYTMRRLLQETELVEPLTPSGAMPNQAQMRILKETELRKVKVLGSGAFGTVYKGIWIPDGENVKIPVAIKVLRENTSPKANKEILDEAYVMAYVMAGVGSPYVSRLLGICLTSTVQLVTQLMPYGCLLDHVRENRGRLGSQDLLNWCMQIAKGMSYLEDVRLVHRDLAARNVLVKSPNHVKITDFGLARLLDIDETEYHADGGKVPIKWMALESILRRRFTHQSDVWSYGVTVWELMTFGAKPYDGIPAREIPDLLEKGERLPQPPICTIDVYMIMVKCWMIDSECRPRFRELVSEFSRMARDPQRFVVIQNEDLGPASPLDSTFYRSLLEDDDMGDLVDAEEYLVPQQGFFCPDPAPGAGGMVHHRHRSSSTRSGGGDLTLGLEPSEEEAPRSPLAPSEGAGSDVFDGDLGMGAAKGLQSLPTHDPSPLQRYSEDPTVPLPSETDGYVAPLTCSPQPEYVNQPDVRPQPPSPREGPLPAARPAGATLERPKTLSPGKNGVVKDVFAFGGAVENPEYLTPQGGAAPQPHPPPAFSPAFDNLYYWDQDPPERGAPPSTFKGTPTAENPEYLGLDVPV

Structure (SMILES) | EC50 [µM]
C=CC(=O)Nc1cccc(-n2c(=O)c(Oc3c(F)cc(F)cc3F)cc3cnc(Nc4cnn(C)c4)nc32)c1 [Compound 82] | < 0.2
C=CC(=O)Nc1cc(Nc2ncc3cc(Oc4ccc(F)cc4F)c(=O)n(CC(F)(F)F)c3n2)c(OC)cc1N(C)CCN(C)C [Compound 85] | < 0.2
C=CC(=O)Nc1ccc(OC)c(Nc2ncc3cc(Oc4ccc(F)cc4F)c(=O)n(CCN(C)C)c3n2)c1 [Compound 94] | < 0.2
C=CC(=O)Nc1cc(Nc2ncc3cc(Oc4ccc(F)cc4F)c(=O)[nH]c3n2)c(OC)cc1N(C)CCN(C)C [Compound 99] | < 0.2
C=CC(=O)N1C[C@H](Cn2c(=O)c(Oc3ccc(F)cc3F)cc3cnc(Nc4cnn(C)c4)nc32)[C@@H](OC)C1 [Compound 102] | < 0.2
C=CC(=O)Nc1cc(Nc2ncc3cc(Oc4ccc(F)cc4F)c(=O)n(C)c3n2)ncc1N(C)CCN(C)C [Compound 105] | 0.6 to 1
C=CC(=O)Nc1cccc(-n2c(=O)c(Oc3ccc(F)cc3F)cc3cnc(N)nc32)c1 [Compound 106] | < 0.2
CCC(=O)Nc1cc(Nc2ncc3cc(Oc4ccc(F)cc4F)c(=O)n(C)c3n2)c(OC)cc1N(C)CCN(C)C [Compound 111] | > 1
C=CC(=O)Nc1cc(Nc2ncc3cc(Oc4ccc(F)cc4F)c(=O)n(C)c3n2)cnc1N(C)CCN(C)C [Compound 113] | < 0.2

target: T7, wild-type HER2 transformed Ba/F3 cells (Homo sapiens, UniProt P04626); assay: Proliferation inhibition assay, wild-type HER2 transformed Ba/F3 cells; type: cell-based; conditions: MTS assay, 72 hours, Table 10 key
T7 construct: expressed in transfected cells; host or cells: Ba/F3
Method: as §1, §2, §3

Structure (SMILES) | EC50 [µM]
C=CC(=O)Nc1cccc(-n2c(=O)c(Oc3c(F)cc(F)cc3F)cc3cnc(Nc4cnn(C)c4)nc32)c1 [Compound 82] | < 0.2
C=CC(=O)Nc1cc(Nc2ncc3cc(Oc4ccc(F)cc4F)c(=O)n(CC(F)(F)F)c3n2)c(OC)cc1N(C)CCN(C)C [Compound 85] | < 0.2
C=CC(=O)Nc1ccc(OC)c(Nc2ncc3cc(Oc4ccc(F)cc4F)c(=O)n(CCN(C)C)c3n2)c1 [Compound 94] | < 0.2
C=CC(=O)Nc1cc(Nc2ncc3cc(Oc4ccc(F)cc4F)c(=O)[nH]c3n2)c(OC)cc1N(C)CCN(C)C [Compound 99] | < 0.2
C=CC(=O)N1C[C@H](Cn2c(=O)c(Oc3ccc(F)cc3F)cc3cnc(Nc4cnn(C)c4)nc32)[C@@H](OC)C1 [Compound 102] | < 0.2
C=CC(=O)Nc1cc(Nc2ncc3cc(Oc4ccc(F)cc4F)c(=O)n(C)c3n2)ncc1N(C)CCN(C)C [Compound 105] | 0.2 to 0.6
C=CC(=O)Nc1cccc(-n2c(=O)c(Oc3ccc(F)cc3F)cc3cnc(N)nc32)c1 [Compound 106] | < 0.2
CCC(=O)Nc1cc(Nc2ncc3cc(Oc4ccc(F)cc4F)c(=O)n(C)c3n2)c(OC)cc1N(C)CCN(C)C [Compound 111] | > 1
C=CC(=O)Nc1cc(Nc2ncc3cc(Oc4ccc(F)cc4F)c(=O)n(C)c3n2)cnc1N(C)CCN(C)C [Compound 113] | < 0.2
